Measured values reported in patent publication US8658661B2, “Oxadiazole inhibitors of leukotriene production” (Boehringer Ingelheim International GmbH, priority 2010, dated 2014).

Experiments:
[1] = target: T1, recombinant human FLAP protein (Homo sapiens, UniProt P20292); experiment: FLAP binding assay (SPA, displacement of [125I]L-691,831); conditions: membranes of sf9 cells expressing recombinant human FLAP; [125I]L-691,831 probe; read-out: FLAP binding IC50
T1 construct: made in house; host or cells: Sf9 insect cells (100,000×g membrane pellet used)
T1 sequence (P20292 1-161): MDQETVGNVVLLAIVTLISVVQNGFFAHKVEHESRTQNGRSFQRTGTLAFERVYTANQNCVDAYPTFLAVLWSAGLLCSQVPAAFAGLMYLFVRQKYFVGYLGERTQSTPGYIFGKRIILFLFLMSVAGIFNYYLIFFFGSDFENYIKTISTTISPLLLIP
Summary of the method: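 Membranes from sf9 cells expressing human FLAP in pH 7.5 Tris buffer (MgCl2, EDTA, PMSF). Non-specific binding defined with 10 μM cold L-691,831.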

[2] = system: synthesis of LTB4 in human whole blood; experiment: Human whole blood assay (inhibition of LTB4 synthesis, calcimycin stimulated); assay type: cell-based; conditions: heparinized human whole blood, calcimycin 20 μM, plasma LTB4
Summary of the method: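 LTB4 in plasma was quantified by HTRF immunoassay. Before that, compound-treated heparinized whole blood (15 min, 37 °C) received 20 μM final calcimycin for a further 30 min at 37 °C, followed by centrifugation at 1500×g.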

| SMILES | IC50 [1] [nM] | IC50 [2] [nM] |
| --- | --- | --- |
| CNc1ccc(-c2ccc([C@](C)(c3noc(-c4cnn(CC(=O)N(C)C)c4)n3)C3CC3)cc2)cn1 [Example 280, 2-[4-(3-{(R)-1-Cyclopropyl-1-[4-(6-methylamino-pyridin-3-yl)-phenyl]-ethyl}-[1,2,4]oxadiazol-5-yl)-pyrazol-1-yl]-N,N-dimethyl-acetamide] | 3 | 35 |
| CC(C)C(C)(c1ccc(-c2cnc(N)nc2)cc1)c1noc(N2CCN(C3CC3)CC2)n1 (stereo not drawn) [Example 266, 5-(4-{1-[5-(4-Cyclopropyl-piperazin-1-yl)-[1,2,4]oxadiazol-3-yl]-1,2-dimethyl-propyl}-phenyl)-pyrimidin-2-ylamine] | 16 | 170 |
| Cn1cc(-c2nc(C(C)(c3ccc(-c4cnc(N)nc4)cc3)C3CCC3)no2)cn1 (stereo not drawn) [Example 33, 5-(4-{1-cyclobutyl-1-[5-(1-methyl-1H-pyrazol-4-yl)-1,2,4-oxadiazol-3-yl]ethyl}phenyl)pyrimidin-2-amine] | 6.6 | 210 |
| CC(C)[C@@](C)(c1ccc(-c2cnc(N)nc2)cc1)c1noc(-c2cnn(CC(C)(C)O)c2)n1 [Example 108, 1-[4-(3-{(2S)-2-[4-(2-aminopyrimidin-5-yl)phenyl]-3-methylbutan-2-yl}-1,2,4-oxadiazol-5-yl)-1H-pyrazol-1-yl]-2-methylpropan-2-ol] | 8.7 | 320 |
| CC(C)C(c1ccc(-c2cnc(N)nc2)cc1)c1noc(-c2cnn(C)c2)n1 (stereo not drawn) [Example 67, 5-(4-{2-methyl-1-[5-(1-methyl-1H-pyrazol-4-yl)-1,2,4-oxadiazol-3-yl]propyl}phenyl)pyrimidin-2-amine] | 6.2 | 190 |
| C[C@@](c1ccc(-c2cnc(N)cn2)cc1)(c1noc(-c2cnc(N3CCNCC3)cn2)n1)C1CC1 [Example 195, 5-(4-{(R)-1-Cyclopropyl-1-[5-(3,4,5,6-tetrahydro-2H-[1,2′]bipyrazinyl-5′-yl)-[1,2,4]oxadiazol-3-yl]-ethyl}-phenyl)-pyrazin-2-ylamine] | 4.6 | 280 |
| CN(C)C(=O)Cn1cc(-c2nc([C@@](C)(c3ccc(-c4cnc5c(c4)OCCN5)cc3)C3CC3)no2)cn1 [Example 254, 2-[4-(3-{(R)-1-Cyclopropyl-1-[4-(3,4-dihydro-2H-pyrido[3,2-b][1,4]oxazin-7-yl)-phenyl]-ethyl}-[1,2,4]oxadiazol-5-yl)-pyrazol-1-yl]-N,N-dimethyl-acetamide] | 2.8 | 210 |
| Cc1ncc(-c2nc(C(C)(c3ccc(-c4cnc(N)nc4)cc3)C(C)C)no2)cn1 (stereo not drawn) [Example 152, 5-(4-{3-methyl-2-[5-(2-methylpyrimidin-5-yl)-1,2,4-oxadiazol-3-yl]butan-2-yl}phenyl)pyrimidin-2-amine] | 3.3 | 270 |
| Cn1cc(-c2nc([C@@](C)(c3ccc(-c4ccc(N)nc4)cc3)C3CC3)no2)cn1 [Example 181, 5-(4-{(R)-1-Cyclopropyl-1-[5-(1-methyl-1H-pyrazol-4-yl)-[1,2,4]oxadiazol-3-yl]-ethyl}-phenyl)-pyridin-2-ylamine] | 3.3 | 51 |
| Cc1ncccc1-c1nc(C(C)(c2ccc(-c3cnc(N)nc3)cc2)C(C)C)no1 (stereo not drawn) [Example 5, 5-(4-{3-methyl-2-[5-(2-methylpyridin-3-yl)-1,2,4-oxadiazol-3-yl]butan-2-yl}phenyl)pyrimidin-2-amine] | 1.6 | 150 |
| CN(C)C(=O)Cn1cc(-c2nc(C(C)(c3ccc(-c4cnc(N)c(C(F)(F)F)n4)cc3)C3CC3)no2)cn1 (stereo not drawn) [Example 289, 2-[4-(3-{1-[4-(5-Amino-6-trifluoromethyl-pyrazin-2-yl)-phenyl]-1-cyclopropyl-ethyl}-[1,2,4]oxadiazol-5-yl)-pyrazol-1-yl]-N,N-dimethyl-acetamide] | 22 | 1000 |
| CC1(O)CCN(c2nc(C(C)(c3ccc(-c4cnc(N)nc4)cc3)C3CC3)no2)CC1 (stereo not drawn) [Example 238, 1-(3-{1-[4-(2-Amino-pyrimidin-5-yl)-phenyl]-1-cyclopropyl-ethyl}-[1,2,4]oxadiazol-5-yl)-4-methyl-piperidin-4-ol] | 5 | 29 |
